# Measured values published in patent US12479823B2, “Compound for use in retinal diseases” (ZHUHAI UNITED LABORATORIES CO., LTD., priority 2018, dated 2025).
# Like-named read-outs stand apart in the source and are kept apart here.
# Experiments:
# [1] = In vitro aldehyde capture capacity test (complexing with nonanal, HPLC at 254 nm)
# Procedure: Objective: dry eye disease is caused by inflammation in eyes, wherein the inflammation may produce aldehydes that will accelerate the inflammation symptoms and worsen the dry eye disease if not eliminated in time. In the experiment, a better compound was selected according to the complexing capacity of the drug and aldehydes in vivo by simulating the in vivo environment.
# Procedures: Sulfobutyl-B-cyclodextrin (310 mg) was dissolved in a phosphate buffer (1.25 mL) to prepare a solution.
# Nonanal (5.0 mg, 32 μmol, 1.0 eq) and triolein (300 mg) were added to a reaction flask at room temperature, after addition of the prepared solution described above, linoleic acid (300 mg) was added, and finally a dimethyl sulfoxide (0.15 ml) solution containing the compound (32 μmol, 1.0 eq) of the present disclosure was added; the reaction solution was reacted at 20-23° C.
# The reaction solution was reacted under stirring for 10 min, 100 min, 200 min, and 300 min respectively, and sampled for high performance liquid chromatography after the solution was stratified after standing for 2 min.
# Sampling method: 25 μl of an upper emulsified layer and 50 μl of a lower aqueous phase were sampled by a pipette, and samples were diluted with 1 mL of methanol.
# The ultraviolet absorption of the nonanal was weak at 254 nm, so the nonanal had little overall effect on the content of complexed products. Therefore, the percentage contents of complexes at 254 nm under high performance liquid chromatography were compared to observe aldehyde capture and complexing capacities, as shown in FIG. 1 and Table 1:
# Taking The compound 7 as an example, after 300 min of reaction, the analytical method for HPLC was XBRIGE 2.5 μm, 3.0*100 mm 5-80CD_XBEH_12 min_0.8.1 cm;
# Retention time 6.689 min, 6.787 min, 6.966 min, and 7.102 min were absorption peaks of products complexed with monomolecular aldehyde;
# Retention time 8.905 min, 9.010 min, and 9.075 min were absorption peaks of products complexed with bimolecular aldehyde.
# CYP1A2 = biological target: T1, CYP1A2 (Homo sapiens, UniProt P05177); assay: Inhibition of human liver microsomal cytochrome P450 CYP1A2; format: in vitro ADME; conditions: human liver microsomes, probe substrate, NADPH
# T1 construct: fused human liver microsomes were selected as a CYP450 enzyme source; from tissue; host or cells: pooled ("fused") human liver microsomes
# T1 sequence (P05177 1-516): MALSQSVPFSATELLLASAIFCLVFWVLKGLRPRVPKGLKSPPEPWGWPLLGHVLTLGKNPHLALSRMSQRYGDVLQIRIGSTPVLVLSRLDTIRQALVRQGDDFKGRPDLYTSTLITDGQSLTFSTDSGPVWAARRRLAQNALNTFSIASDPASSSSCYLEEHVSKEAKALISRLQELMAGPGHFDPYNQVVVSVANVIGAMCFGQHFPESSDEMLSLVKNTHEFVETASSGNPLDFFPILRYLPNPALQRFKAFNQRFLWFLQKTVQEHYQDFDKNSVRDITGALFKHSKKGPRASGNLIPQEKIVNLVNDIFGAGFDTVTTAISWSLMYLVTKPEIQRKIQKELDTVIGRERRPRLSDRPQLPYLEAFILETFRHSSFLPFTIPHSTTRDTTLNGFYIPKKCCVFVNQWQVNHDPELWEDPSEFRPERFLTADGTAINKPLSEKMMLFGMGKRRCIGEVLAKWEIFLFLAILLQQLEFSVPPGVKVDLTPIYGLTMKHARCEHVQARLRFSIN
# Source text: (§1) Objective: To study the inhibitory effect of compounds on human liver microsomal cytochrome P450. Experimental procedures: In the study on inhibition of the compounds on the human liver microsomal cytochrome P450 (CYP1A2, CYP2C9, CYP2C19, CYP2D6 and CYP3A4), fused human liver microsomes were selected as a CYP450 enzyme source. […]
# CYP2C9 = biological target: T2, CYP2C9 (Homo sapiens, UniProt P11712); assay: Inhibition of human liver microsomal cytochrome P450 CYP2C9; format: in vitro ADME; conditions: human liver microsomes, probe substrate, NADPH
# T2 construct: fused human liver microsomes were selected as a CYP450 enzyme source; from tissue; host or cells: pooled ("fused") human liver microsomes
# Source text: as §1
# CYP2C19 = biological target: T3, CYP2C19 (Homo sapiens, UniProt P33261); assay: Inhibition of human liver microsomal cytochrome P450 CYP2C19; format: in vitro ADME; conditions: human liver microsomes, probe substrate, NADPH
# T3 construct: fused human liver microsomes were selected as a CYP450 enzyme source; from tissue; host or cells: pooled ("fused") human liver microsomes
# Source text: as §1
# CYP2D6 = biological target: T4, CYP2D6 (Homo sapiens, UniProt P10635); assay: Inhibition of human liver microsomal cytochrome P450 CYP2D6; format: in vitro ADME; conditions: human liver microsomes, probe substrate, NADPH
# T4 construct: fused human liver microsomes were selected as a CYP450 enzyme source; from tissue; host or cells: pooled ("fused") human liver microsomes
# Source text: as §1
# [2] = Pharmacokinetics in cynomolgus monkeys, single intravenous injection; format: in vivo; conditions: male, cynomolgus monkey, plasma, 1 mg/kg single intravenous injection
# Procedure: Objective: To Study Pharmacokinetics of the Compound in Cynomolgus Monkeys
# Experimental material: Cynomolgus Monkeys (male, 2.5-4 kg, greater than or equal to 2 years, Jingang Biotech)
# Pharmacokinetic profiles of the compound were tested by intravenous administration in monkeys according to the standard protocol. In the study, the candidate compound was prepared as a clear solution, and was administered to cynomolgus monkeys at 1 mg/kg by single intravenous injection. A vehicle for intravenous injection was a 10% hydroxypropyl ß-cyclodextrin aqueous solution. Whole blood samples were collected at 0.033, 0.083, 0.25, 0.5, 1, 2, 4, 8, 12, and 24 hours, respectively, centrifuged at 3000 r for 10 min, and separated from supernatant to obtain plasma samples. 20 μL of plasma samples were mixed with 400 μL of acetonitrile precipitated proteins containing an internal standard, and 2 μL of the supernatant was injected by centrifugation. Plasma concentrations were quantified by LC-MS/MS analysis, and pharmacokinetic parameters, such as clearance, half-life, and area under the concentration-time curve, etc. were calculated.
# [3] = Corneal and plasma drug concentration after eye drops in rats; format: in vivo
# Procedure: Objective: To Study the Ratio of Corneal to Plasma Drug Concentration After Eye Drops in Rats
# Experimental Materials: Male SD Rats, 200-300 g, 7-9 weeks old, Shanghai Lingchang
# Experimental procedures: The candidate compound was prepared as a clear solution, and administered to SD rats by eye drops. The vehicle for eye drops was 10% hydroxypropyl β-cyclodextrin aqueous solution, and the drug concentration in the eye drops was 5 mg/mL. Corneal and whole blood samples were collected at 1 and 4 hours, respectively. The corneal samples was homogenized in 15 mM phosphate buffer (PBS): MeoH (2:1, v: v) buffer, the whole blood samples were centrifuged at 3000 r for 10 min, and the supernatant plasma samples were separated. 20 μL of the plasma samples and homogenate samples were mixed with 400 μL of acetonitrile precipitated proteins containing an internal standard, respectively, and 2 μL of the supernatant was injected by centrifugation. The plasma concentrations were quantified by LC-MS/MS analysis; the drug concentrations in the cornea and plasma were measured respectively according to different time points, and the ratio of corneal/plasma concentrations was calculated.
# T3 sequence (P33261 whole entry, the tested form may be a part): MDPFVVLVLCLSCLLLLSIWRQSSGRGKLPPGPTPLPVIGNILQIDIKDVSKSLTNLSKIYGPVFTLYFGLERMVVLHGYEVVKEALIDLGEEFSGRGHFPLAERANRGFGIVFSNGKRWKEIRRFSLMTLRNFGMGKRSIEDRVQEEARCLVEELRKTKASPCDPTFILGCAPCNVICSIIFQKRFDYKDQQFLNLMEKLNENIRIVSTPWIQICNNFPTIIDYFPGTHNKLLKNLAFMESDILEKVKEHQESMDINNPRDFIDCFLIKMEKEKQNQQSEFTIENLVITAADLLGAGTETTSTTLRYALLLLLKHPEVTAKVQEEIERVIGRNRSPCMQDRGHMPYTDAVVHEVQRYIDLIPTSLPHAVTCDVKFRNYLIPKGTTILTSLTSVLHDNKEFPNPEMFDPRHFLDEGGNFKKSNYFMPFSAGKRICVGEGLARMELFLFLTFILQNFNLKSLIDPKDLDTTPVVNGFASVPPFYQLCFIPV
# T2 sequence (P11712 whole entry, the tested form may be a part): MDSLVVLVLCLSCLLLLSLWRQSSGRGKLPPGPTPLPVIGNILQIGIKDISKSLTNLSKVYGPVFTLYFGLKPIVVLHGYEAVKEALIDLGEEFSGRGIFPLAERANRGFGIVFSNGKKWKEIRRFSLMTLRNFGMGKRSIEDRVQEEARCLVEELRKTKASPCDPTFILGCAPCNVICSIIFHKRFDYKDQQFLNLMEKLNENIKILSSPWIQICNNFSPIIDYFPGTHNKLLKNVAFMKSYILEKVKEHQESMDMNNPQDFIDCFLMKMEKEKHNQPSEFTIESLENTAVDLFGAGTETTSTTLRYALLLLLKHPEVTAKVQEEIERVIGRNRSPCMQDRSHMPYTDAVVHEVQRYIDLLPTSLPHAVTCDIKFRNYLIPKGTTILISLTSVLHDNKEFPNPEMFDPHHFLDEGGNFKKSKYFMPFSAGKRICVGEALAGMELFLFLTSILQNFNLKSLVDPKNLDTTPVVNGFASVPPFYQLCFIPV
# T4 sequence (P10635 whole entry, the tested form may be a part): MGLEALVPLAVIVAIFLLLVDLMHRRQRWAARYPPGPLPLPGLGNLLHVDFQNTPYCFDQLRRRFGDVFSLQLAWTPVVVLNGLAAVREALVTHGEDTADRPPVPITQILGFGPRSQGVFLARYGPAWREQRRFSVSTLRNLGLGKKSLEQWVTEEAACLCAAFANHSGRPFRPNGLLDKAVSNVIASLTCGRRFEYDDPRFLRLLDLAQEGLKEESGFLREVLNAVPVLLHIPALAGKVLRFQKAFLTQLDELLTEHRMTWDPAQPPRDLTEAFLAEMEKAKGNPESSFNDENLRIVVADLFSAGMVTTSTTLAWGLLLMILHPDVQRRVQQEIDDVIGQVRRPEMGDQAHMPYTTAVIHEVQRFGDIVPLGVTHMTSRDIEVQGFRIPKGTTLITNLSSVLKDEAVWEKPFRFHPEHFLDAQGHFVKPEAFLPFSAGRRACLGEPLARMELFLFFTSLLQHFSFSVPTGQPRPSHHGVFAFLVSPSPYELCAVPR
smiles,measurement,setting,value
CC(C)(O)c1ccc(-c2cnc(C(C)(C)O)c(N)c2)cc1N [Compound 3],percentage content of complexed products at 254 nm,[1]; Time 10 min,3.265%
same,percentage content of complexed products at 254 nm,[1]; Time 100 min,10.569%
same,percentage content of complexed products at 254 nm,[1]; Time 200 min,17.191%
same,percentage content of complexed products at 254 nm,[1]; Time 300 min,22.182%
same,Area under the curve AUC,"[1]; nonanal 1.0 eq, compound 1.0 eq, 20-23° C., 10-300 min, HPLC 254 nm",3979 min. Conversion
same,Slope (linear equation of percentage content of complexed products vs time),"[1]; nonanal 1.0 eq, compound 1.0 eq, 20-23° C., 10-300 min, HPLC 254 nm, in %/min",0.0652
same,IC50,CYP1A2,> 50 µM
same,IC50,CYP2C9,> 50 µM
same,IC50,CYP2C19,> 50 µM
same,IC50,CYP2D6,> 50 µM
same,clearance,[2],6.2 mL/min/kg
same,AUC,[2]; read-out: Area under the concentration-time curve AUC,9.16 µM·h
same,half-life,[2]; read-out: Half-time T1/2 (converted),3.81 h
same,entry into the cornea by eye drops,"[3]; SD rats, eye drops, result in words",could enter the cornea by eye drops
same,concentration at 1 h,"[3]; male, Sprague-Dawley (SD), rat, cornea, topical, eye drops 5 mg/mL, 1 h, read-out: Corneal Concentration",1800 nM
same,concentration at 4 h,"[3]; male, Sprague-Dawley (SD), rat, cornea, topical, eye drops 5 mg/mL, 4 h, read-out: Corneal Concentration",581 nM
same,Kp,"[3]; male, Sprague-Dawley (SD), rat, cornea/plasma, topical, 5 mg/mL, eye drops, statement in the conclusion, no time point, read-out: ratio of cornea/plasma concentrations",> 10
same,Kp at 1 h,"[3]; male, Sprague-Dawley (SD), rat, cornea/plasma, topical, eye drops 5 mg/mL, 1 h, read-out: Corneal Concentration/Plasma Concentration C/P ratio",14.3
same,Kp at 4 h,"[3]; male, Sprague-Dawley (SD), rat, cornea/plasma, topical, eye drops 5 mg/mL, 4 h, read-out: Corneal Concentration/Plasma Concentration C/P ratio",16.6
same,concentration at 1 h,"[3]; male, Sprague-Dawley (SD), rat, plasma, topical, eye drops 5 mg/mL, 1 h, read-out: Plasma Concentration",162 nM
same,concentration at 4 h,"[3]; male, Sprague-Dawley (SD), rat, plasma, topical, eye drops 5 mg/mL, 4 h, read-out: Plasma Concentration",43.8 nM
